Test results as given in patent publication US6509355B1, “Treatment of disorders of the outer retina” (Alcon Laboratories, Inc., priority 1998, dated 2003).

Experiments:
[1] = molecular target: NR1A/NR2B subtype of the polyamine binding site of the NMDA receptor (Homo sapiens, UniProt Q05586+Q13224); settings: cited from earlier work
[2] = tested on: laser induced thermal burns to the retina; settings: cited from earlier work
[3] = tested on: photo-oxidative induced retinopathy; assay: Photo-oxidative induced retinopathy: 6-hour blue light exposure, ERG after 5-day recovery
From the text: Photic retinopathy results from excessive excitation of the retinal pigment epithelium and neuroretina by absorption of visible or near ultraviolet radiation. Lesion severity is dependent upon wavelength, irradiance, exposure duration, species, ocular pigmentation, and age. Damage may result from peroxidation of cellular membranes, inactivation of mitochondrial enzymes such as cytochrome oxidase, or increased intracellular calcium. Cellular damage resulting from photo-oxidative stress leads to cell death by apoptosis, (Shahinfar, S., Edward. D. P. and Tso, M. O. (1991), A pathologic study of photoreceptor cell death in retinal photic injury. Current Eye Research, 10:47-59: Abler, A. S., Chang, C. J., Fu, J. and Tso, M. O. (1994), Photic injury triggers apoptosis of photoreceptor cells. Investigative Ophthalmology & Visual Science, 35(Suppl):1517). Oxidative stress induced apoptosis has been implicated as a cause of many ocular pathologies, including, iatrogenic retinopathy, macular degeneration, retinitis pigmentosa and other forms of heredodegenerative disease, ischemic retinopathy, retinal tears, retinal detachment, glaucoma and retinal neovascularization (Chang, C. J., Lai, W. W., Edward, D. P. and Tso, M. O. (1995), Apoptotic photoreceptor cell death after traumatic retinal detachment in humans, Archives of Ophthalmology, 113:880-886: Portera-Cailliau, C., Sung, C. H., Nathans, J. and Adler, R. (1994), Apoptotic photoreceptor cell death in mouse models of retinitis pigmentosa, Proceedings of National Academy of Science (U.S.A.), 91:974-978; Buchi, E. R. (1992), Cell death in the rat retina after a pressure-induced ischaemia-reperfusion insult: an electron microscopic study. I. Ganglion cell layer and inner nuclear layer, Experimental Eye Research, 55:605-613; Quigley, H. A., Nickells. R. W., Kerrigan, L. A., Pease, M. E., Thibault, D. J. and Zack, D. J. (1995), Retinal ganglion cell death in experimental glaucoma and after axotomy occurs by apoptosis, Investigative Ophthalmology & Visual Science, 36:774-786). […] Alan R. Liss, Inc., New York; Collier, R., W. Waldron and Zigman, S. (1989), Temporal sequence of changes to the gray squirrel retina after near-UV exposure, Investigative Ophthalmology & Visual Science, 30:631-637), non-human primates (Tso, M. O. M. (1973), Photic maculopathy in rhesus monkey. A light and electron microscopic study. Investigative Ophthalmology & Visual Science, 12:17-34; Ham, W. T., Jr., Ruffolo, J. J., Jr., Mueller, H. A. and Guerry, D., III. (1980), The nature of retinal radiation damage: dependence on wavelength, power level and exposure time, Vision Research, 20:1105-1111; Sperling, H. G., Johnson, C. and Harwerth, R. S. (1980), Differential spectral photic damage to primate cones, Vision Research, 20:1117-1125: Sykes, S. M., Robison, W. G., Jr., Waxler, M. and Kuwabara, T. (1981), Damage to the monkey retina by broad spectrum fluorescent light, Investigative Ophthalmology & Visual Science, 20:425-434; Lawwill, T. (1982), Three major pathologic processes caused by light in the primate retina: A search for mechanisms, Transactions of the American Ophthalmology Society, 80:517-577), and man (Marshall, J. Hamilton, A. M. and Bird, A. C. (1975), Histopathology of ruby and argon laser lesions in monkey and human retina, British Journal of Ophthalmology, 59:610-630; Green, W. R. and Robertson, D. M. (1991), Pathologic findings of photic retinopathy in the human eye. American Journal of Ophthalmology, 112:520-27).

NMDA receptor = assay: Binding affinity to the NMDA receptor; settings: order of magnitude only
retinal laser burn = assay: Retinal laser burn spread damage: argon laser, lesion area in outer nuclear layer after 48 hours; format: in vivo, Pigmented Long Evans rats
From the text: The eye is exposed to high-energy laser radiation during the performance of retinal photocoagulation therapy (grid, focal and […]) or during photodynamic therapy. This type of therapy is often employed during treatment of choroidal neovascularization, proliferative stages of diabetic retinopathy, retinopathy of prematurity, or to repair retinal holes or […]. Associated with this laser therapy is tissue destruction leading to vision deterioration. […] It is believed that this vision loss results directly from the expansion of the laser-induced lesion to surrounding normal neurosensory retina and RPE. Singlet oxygen and other reactive oxygen species as well as cytokines are generated in the area of the laser burn and thought to migrate laterally to cause collateral retinal damage. Retinal morphology changes in this area are similar to changes in our photo-oxidative retinopathy paradigm. […] Pigmented Long Evans rats were randomly assigned to control, vehicle or drug dosed groups. […] After a 48-hour recovery period, eyes were fixed, dehydrated, and embedded in plastic resin. Histological assessment of laser burns was performed by flatmounting the retina and sectioning the tissue in a plane tangential to the nerve fiber layer. Using this technique, the lesion area in the outer nuclear layer could be calculated using an image analysis system. […] The laser bum center was marked by; complete closure of all capillaries, arterioles and venuoles; perforation of Bruch's membrane; pyknosis and necrosis of all photoreceptor nuclei; and destruction of inner and outer segments. Spread of the lesion into peripheral retina consisted of shortening of outer segments, inner segment swelling, clumping of melanin granules in the RPE and choroid, and vacuolization of the RPE.

[4] = tested on: light induced functional or morphological changes; assay: Light damage paradigms (light induced damage paradigm); settings: in vivo
Experimental: Eliprodil was evaluated in our light induced damage paradigm, a model of retinal degenerative diseases such as retinitis pigmentosa and age-related macular degeneration.

[5] = tested on: mechanical stress induced ischemia reperfusion; settings: Arch Ophthal 1993; cited from earlier work

Chain of NR1A/NR2B subtype of the polyamine binding site of the NMDA receptor (Q13224 27-1484, other chains not shown): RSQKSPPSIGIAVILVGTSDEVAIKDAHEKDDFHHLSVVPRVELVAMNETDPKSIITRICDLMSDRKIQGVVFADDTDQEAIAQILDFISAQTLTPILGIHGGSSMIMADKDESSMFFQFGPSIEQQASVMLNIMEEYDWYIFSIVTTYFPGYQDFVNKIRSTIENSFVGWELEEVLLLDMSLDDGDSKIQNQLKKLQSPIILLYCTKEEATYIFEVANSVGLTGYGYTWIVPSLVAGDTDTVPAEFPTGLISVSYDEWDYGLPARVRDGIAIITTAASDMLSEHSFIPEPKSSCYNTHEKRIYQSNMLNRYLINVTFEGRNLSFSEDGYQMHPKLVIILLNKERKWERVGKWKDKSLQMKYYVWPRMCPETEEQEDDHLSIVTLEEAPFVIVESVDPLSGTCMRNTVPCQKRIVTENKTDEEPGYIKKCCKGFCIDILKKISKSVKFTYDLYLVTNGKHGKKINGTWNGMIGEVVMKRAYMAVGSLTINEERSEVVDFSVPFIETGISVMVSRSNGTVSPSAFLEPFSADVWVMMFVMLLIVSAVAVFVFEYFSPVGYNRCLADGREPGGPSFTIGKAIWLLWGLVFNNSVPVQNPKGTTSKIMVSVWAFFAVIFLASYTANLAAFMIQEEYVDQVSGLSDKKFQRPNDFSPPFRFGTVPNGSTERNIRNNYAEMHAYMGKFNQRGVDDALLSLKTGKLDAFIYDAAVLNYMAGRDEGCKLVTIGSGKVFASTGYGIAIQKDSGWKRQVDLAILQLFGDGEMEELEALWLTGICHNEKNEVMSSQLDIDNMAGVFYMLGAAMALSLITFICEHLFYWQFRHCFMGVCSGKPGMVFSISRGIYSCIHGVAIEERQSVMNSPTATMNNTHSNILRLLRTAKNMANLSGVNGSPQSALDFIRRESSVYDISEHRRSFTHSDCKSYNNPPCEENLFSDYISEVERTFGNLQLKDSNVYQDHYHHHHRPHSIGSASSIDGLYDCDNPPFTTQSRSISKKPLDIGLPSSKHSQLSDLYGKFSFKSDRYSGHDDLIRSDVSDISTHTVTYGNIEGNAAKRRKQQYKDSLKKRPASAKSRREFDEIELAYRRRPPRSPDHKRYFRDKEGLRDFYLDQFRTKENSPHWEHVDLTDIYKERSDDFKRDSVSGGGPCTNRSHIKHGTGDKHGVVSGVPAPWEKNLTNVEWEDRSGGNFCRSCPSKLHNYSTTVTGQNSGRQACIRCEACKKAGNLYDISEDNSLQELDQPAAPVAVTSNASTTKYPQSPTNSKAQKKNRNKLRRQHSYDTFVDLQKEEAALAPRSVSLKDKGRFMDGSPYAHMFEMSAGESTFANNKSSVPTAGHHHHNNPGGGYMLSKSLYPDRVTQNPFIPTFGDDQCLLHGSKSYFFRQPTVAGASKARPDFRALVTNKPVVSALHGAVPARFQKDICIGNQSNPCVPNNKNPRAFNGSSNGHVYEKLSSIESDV

**Q.** Which “subtype preference of NMDA receptor block” value [1] does the source give for `C[C@@H]([C@@H](O)c1ccc(O)cc1)N1CCC(O)(c2ccccc2)CC1` [CP-101,606] here?
**A.** preferentially block

**Q.** Which “prevention of photoreceptor loss” value ([2]; 3 and 20 days post laser exposure) does the source give for `C[C@]12N[C@H](Cc3ccccc31)c1ccccc12` [MK-801, reference compound] here?
**A.** did not significantly prevent

**Q.** What about the “preventing the spread of laser induced thermal burns to the retina” value ([2]; at 60 days) of the same compound?
**A.** minimally effective

**Q.** And the “dose dependence of protection of outer and inner retina function” value ([3]; Experiment 1)?
**A.** dose-dependent protection

**Q.** What about the “protection of outer and inner retina function against light induced retinal degeneration” value ([3]; Experiment 1, 2 mg/kg IP, vs vehicle) of the same compound?
**A.** No significant protection

**Q.** What about the “protection of outer and inner retina function against light induced retinal degeneration” value ([3]; Experiment 1, 10 mg/kg IP, vs vehicle) of the same compound?
**A.** No significant protection

**Q.** And the “ERG responses compared with control (normal)” value ([3]; Experiment 1, 20 mg/kg IP)?
**A.** not significantly different than control

**Q.** What about the “protection of outer and inner retina function against light induced retinal degeneration” value ([3]; Experiment 1, 20 mg/kg IP at 48, 24, 0 h before light, vs vehicle) of the same compound?
**A.** significant protection

**Q.** What about the “maximum a-wave response amplitude” value ([3]; Experiment 1, 20 mg/kg IP, controls 734.05 μV) of the same compound?
**A.** 537.93 μV

**Q.** And the “maximum b-wave response amplitude” value ([3]; Experiment 1, 20 mg/kg IP, controls 1807 μV)?
**A.** 1449.77 μV

**Q.** What about the “rescue of RPE and photoreceptor cells (summary)” value ([3]; summary of Experiments 1 and 2) of the same compound?
**A.** Complete protection

**Q.** What does the source list for `O[C@@H](CN1CCC(Cc2ccc(F)cc2)CC1)c1ccc(Cl)cc1` [R-eliprodil]?
**A.** binding affinity to the NMDA receptor (NMDA receptor): nanomolar; lesion area smaller than in vehicle dosed rats (retinal laser burn; 20 mg/kg IP): 16%; significance of lesion area difference from vehicle (retinal laser burn; 20 mg/kg IP): not significantly different; Laser burn lesion area (retinal laser burn; 40 mg/kg IP): 36,016 μ^2; lesion area smaller than in vehicle dosed rats (retinal laser burn; 40 mg/kg IP): 28%; significance of lesion area difference from vehicle (retinal laser burn; 40 mg/kg IP): significantly diflerent; reduction of collateral retinal damage around the laser burn (summary) (retinal laser burn): significant reduction; potency relative to eliprodil (racemic) ([3]; rat, in vivo): two-fold less potent; Maximum a-wave response, % of normal ([3]; rat, in vivo, ip, 20 mg/kg): 38%; Maximum b-wave response, % of normal ([3]; rat, in vivo, ip, 20 mg/kg): 36%; protection of outer and inner retina function against light induced retinal degeneration ([3]; rat, in vivo, ip, 20 mg/kg): No significant protection; Response amplitudes, fold higher than vehicle dosed rats ([3]; rat, in vivo, ip, 40 mg/kg): about 2 fold; maximum a-wave response amplitude ([3]; rat, in vivo, ip, 40 mg/kg): 397.25 μV; maximum b-wave response amplitude ([3]; rat, in vivo, ip, 40 mg/kg): 812.87 μV; protection of outer and inner retina function against light induced retinal degeneration ([3]; rat, in vivo, ip, 40 mg/kg): significant protection; response amplitudes, % of normal ([3]; rat, in vivo, ip, 40 mg/kg): ~50%; Maximum a- and b-wave responses, % of normal ([3]; rat, in vivo, ip, 80 mg/kg): approximately 40%; protection of outer and inner retina function against light induced retinal degeneration ([3]; rat, in vivo, ip, 80 mg/kg): No significant retinal protection

**Q.** For `O[C@H](CN1CCC(Cc2ccc(F)cc2)CC1)c1ccc(Cl)cc1` [S-eliprodil], which “binding affinity to the NMDA receptor” value (NMDA receptor) is on record?
**A.** millimolar

**Q.** And the “Laser burn lesion area” value (retinal laser burn; 20 mg/kg IP)?
**A.** 43,098.5 μ^2

**Q.** What about the “lesion area smaller than in vehicle dosed rats” value (retinal laser burn; 20 mg/kg IP) of the same compound?
**A.** 15%

**Q.** What about the “significance of lesion area difference from vehicle” value (retinal laser burn; 20 mg/kg IP) of the same compound?
**A.** not significantly different

**Q.** What about the “reduction of collateral retinal damage around the laser burn (summary)” value (retinal laser burn) of the same compound?
**A.** devoid of significant efficacy

**Q.** And the “potency rank as retinoprotective agent in the series” value ([3]; rat, in vivo)?
**A.** most potent

**Q.** What about the “potency relative to eliprodil (racemic)” value ([3]; rat, in vivo) of the same compound?
**A.** two-fold more potent

**Q.** And the “difference in ERG response amplitude compared to vehicle dosed rats” value ([3]; rat, in vivo, ip, 5 mg/kg)?
**A.** No significant difference

**Q.** And the “Maximum a-wave response, % of normal” value ([3]; rat, in vivo, ip, 10 mg/kg)?
**A.** 64%

**Q.** What about the “Maximum b-wave response, % of normal” value ([3]; rat, in vivo, ip, 10 mg/kg) of the same compound?
**A.** 76%

**Q.** And the “protection of outer and inner retina function against light induced retinal degeneration” value ([3]; rat, in vivo, ip, 10 mg/kg)?
**A.** Significant protection

**Q.** What about the “Response amplitudes, fold higher than vehicle dosed rats” value ([3]; rat, in vivo, ip, 20 mg/kg) of the same compound?
**A.** about 2 fold

**Q.** What about the “maximum a-wave response amplitude” value ([3]; rat, in vivo, ip, 20 mg/kg) of the same compound?
**A.** 418.04 μV

**Q.** What about the “maximum b-wave response amplitude” value ([3]; rat, in vivo, ip, 20 mg/kg) of the same compound?
**A.** 1015.95 μV

**Q.** What about the “protection of outer and inner retina function against light induced retinal degeneration” value ([3]; rat, in vivo, ip, 20 mg/kg) of the same compound?
**A.** Significant protection

**Q.** And the “response amplitudes, % of normal” value ([3]; rat, in vivo, ip, 20 mg/kg)?
**A.** approximately 62%

**Q.** For `Cc1c(C)c2c(c(C)c1O)CC[C@@](C)(CCC[C@H](C)CCC[C@H](C)CCCC(C)C)O2` [alpha-tocopherol], which “preventing light induced functional or morphological changes” value [4] is on record?
**A.** ineffective

**Q.** With `N=C(N)NC(=O)c1nc(Cl)c(N)nc1N` [amiloride] as the compound, how does the “preventing light induced functional or morphological changes” value [4] read?
**A.** no effect

**Q.** Which “preventing light induced functional or morphological changes” value [4] does the source give for `COC(=O)C1=C(C)NC(C)=C(C(=O)O[C@H]2CCN(Cc3ccccc3)C2)[C@H]1c1cccc([N+](=O)[O-])c1` [barnidipine] here?
**A.** no effect

**Q.** For `COc1ccc2c(c1)[C@]13CCCC[C@@H]1[C@H](C2)N(C)CC3` [dextromethorphan], which “protection of inner retina function and RPE function” value [5] is on record?
**A.** moderately protected

**Q.** What about the “protective effect for outer retina function” value [5] of the same compound?
**A.** no significant protective effect

**Q.** Which “preventing light induced functional or morphological changes” value [4] does the source give for `Fc1ccc(C(c2ccc(F)cc2)N2CCN(C/C=C/c3ccccc3)CC2)cc1` [flunarizine] here?
**A.** moderately effective

**Q.** For `CC(C(O)c1ccc(O)cc1)N1CCC(Cc2ccccc2)CC1` (centres unmarked) [ifenprodil], which “subtype preference of NMDA receptor block” value [1] is on record?
**A.** preferentially block

**Q.** Which “preventing light induced functional or morphological changes” value [4] does the source give for `Cc1cccc(C)c1NC(=O)CN1CCN(CCCC(c2ccc(F)cc2)c2ccc(F)cc2)CC1` [lidoflazine] here?
**A.** no effect

**Q.** For `CC12CC3CC(C)(C1)CC(N)(C3)C2` [memantine, reference compound], which “dose dependence of protection of outer and inner retina function” value ([3]; rat, in vivo) is on record?
**A.** dose-dependent protection

**Q.** What about the “protection of outer and inner retina function against light induced retinal degeneration” value ([3]; rat, in vivo, ip, 2 mg/kg) of the same compound?
**A.** no significant protection

**Q.** And the “ERG responses compared with control (normal)” value ([3]; rat, in vivo, ip, 20 mg/kg)?
**A.** significantly lower than normal

**Q.** What about the “protection of outer and inner retina function against light induced retinal degeneration” value ([3]; rat, in vivo, ip, 20 mg/kg) of the same compound?
**A.** significant protection

**Q.** Which “preventing light induced functional or morphological changes” value [4] does the source give for `COCCOC(=O)C1=C(C)NC(C)=C(C(=O)OC(C)C)C1c1cccc([N+](=O)[O-])c1` (centres unmarked) [nimodipine] here?
**A.** no effect

**Q.** With prenylamine lactate as the compound, how does the “preventing light induced functional or morphological changes” value [4] read?
**A.** no effect
